Assay results from ChEMBL document CHEMBL5465560, “Selectivity Literature for EUbOPEN Chemogenomic Library” (2024).

Experiments:
[1] = biological target: T1, Inhibitor of nuclear factor kappa-B kinase subunit epsilon (Homo sapiens) (UniProt Q14164); assay: Selectivity interaction (KinomeScan (DiscoverX)) EUB0000666a IKBKE; conditions: at 10 µM
T1 sequence (whole entry): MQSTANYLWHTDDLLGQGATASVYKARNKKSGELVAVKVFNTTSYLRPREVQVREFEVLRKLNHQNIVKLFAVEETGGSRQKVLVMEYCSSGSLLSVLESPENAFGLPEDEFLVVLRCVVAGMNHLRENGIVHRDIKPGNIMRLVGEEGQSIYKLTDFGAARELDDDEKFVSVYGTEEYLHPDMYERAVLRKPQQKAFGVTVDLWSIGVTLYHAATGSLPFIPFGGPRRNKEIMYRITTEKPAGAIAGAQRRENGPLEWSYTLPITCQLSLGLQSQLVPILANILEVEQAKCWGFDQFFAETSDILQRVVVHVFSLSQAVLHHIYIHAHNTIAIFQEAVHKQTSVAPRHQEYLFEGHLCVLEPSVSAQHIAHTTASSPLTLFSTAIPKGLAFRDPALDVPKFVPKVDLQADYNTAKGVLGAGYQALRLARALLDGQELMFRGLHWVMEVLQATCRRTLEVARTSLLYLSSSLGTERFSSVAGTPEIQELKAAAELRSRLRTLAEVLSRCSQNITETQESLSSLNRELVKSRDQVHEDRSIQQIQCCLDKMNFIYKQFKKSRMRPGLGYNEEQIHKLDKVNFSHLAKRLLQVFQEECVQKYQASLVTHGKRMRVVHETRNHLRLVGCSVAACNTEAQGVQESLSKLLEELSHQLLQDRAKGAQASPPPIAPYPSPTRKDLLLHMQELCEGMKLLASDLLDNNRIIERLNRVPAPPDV

[2] = biological target: T2, Serine/threonine-protein kinase tousled-like 1 (Homo sapiens) (UniProt Q9UKI8); assay: Selectivity interaction (KinomeScan (DiscoverX)) EUB0000666a TLK1; conditions: at 10 µM
T2 sequence (whole entry): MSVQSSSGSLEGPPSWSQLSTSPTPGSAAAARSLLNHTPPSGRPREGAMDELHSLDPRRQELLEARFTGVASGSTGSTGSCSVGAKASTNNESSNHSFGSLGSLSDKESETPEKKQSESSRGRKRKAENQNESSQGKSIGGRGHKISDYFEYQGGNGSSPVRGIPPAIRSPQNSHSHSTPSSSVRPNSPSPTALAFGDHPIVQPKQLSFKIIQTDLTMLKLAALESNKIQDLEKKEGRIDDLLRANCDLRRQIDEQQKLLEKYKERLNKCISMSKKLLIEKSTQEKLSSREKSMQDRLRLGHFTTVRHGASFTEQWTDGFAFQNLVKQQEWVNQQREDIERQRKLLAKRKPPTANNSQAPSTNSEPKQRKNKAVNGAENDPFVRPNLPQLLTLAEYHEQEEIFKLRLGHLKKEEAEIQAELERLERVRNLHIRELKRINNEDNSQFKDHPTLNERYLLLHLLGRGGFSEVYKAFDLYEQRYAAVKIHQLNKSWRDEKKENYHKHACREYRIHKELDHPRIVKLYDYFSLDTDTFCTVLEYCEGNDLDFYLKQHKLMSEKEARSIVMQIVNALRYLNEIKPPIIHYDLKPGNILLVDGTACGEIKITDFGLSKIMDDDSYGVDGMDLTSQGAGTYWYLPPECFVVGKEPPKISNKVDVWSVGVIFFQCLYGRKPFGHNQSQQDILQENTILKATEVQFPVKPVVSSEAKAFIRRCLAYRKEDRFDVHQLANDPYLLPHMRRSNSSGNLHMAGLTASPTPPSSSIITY

[3] = biological target: Receptor-interacting serine/threonine-protein kinase 2 (Homo sapiens, UniProt O43353); assay: Selectivity interaction (KinomeScan (DiscoverX)) EUB0000666a RIPK2; conditions: at 10 µM
Sequence of Receptor-interacting serine/threonine-protein kinase 2 (O43353 whole entry): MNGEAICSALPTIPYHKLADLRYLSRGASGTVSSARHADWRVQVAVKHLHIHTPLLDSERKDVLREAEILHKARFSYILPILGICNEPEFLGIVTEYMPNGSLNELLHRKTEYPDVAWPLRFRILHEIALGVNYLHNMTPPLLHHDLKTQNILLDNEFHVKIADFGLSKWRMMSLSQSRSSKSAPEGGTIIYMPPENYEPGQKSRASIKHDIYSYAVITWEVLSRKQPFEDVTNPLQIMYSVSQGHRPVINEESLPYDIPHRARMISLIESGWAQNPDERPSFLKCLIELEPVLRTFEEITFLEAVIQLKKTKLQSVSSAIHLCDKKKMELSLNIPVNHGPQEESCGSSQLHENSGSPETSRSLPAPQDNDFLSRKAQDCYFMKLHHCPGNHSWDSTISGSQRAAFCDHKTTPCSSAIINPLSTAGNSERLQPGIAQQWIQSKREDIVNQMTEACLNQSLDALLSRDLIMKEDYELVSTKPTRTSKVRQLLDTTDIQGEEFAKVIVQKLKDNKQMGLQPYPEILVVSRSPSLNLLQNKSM

[4] = biological target: Calcium/calmodulin-dependent protein kinase type II subunit delta (Homo sapiens) (UniProt Q13557); assay: Selectivity interaction (Ambit KINOMEscan and KiNATiv profiling in Jurkat cells) EUB0000090b CAMK2D; format: cell-based; conditions: at 1 µM
Sequence of Calcium/calmodulin-dependent protein kinase type II subunit delta (Homo sapiens) (Q13557 whole entry): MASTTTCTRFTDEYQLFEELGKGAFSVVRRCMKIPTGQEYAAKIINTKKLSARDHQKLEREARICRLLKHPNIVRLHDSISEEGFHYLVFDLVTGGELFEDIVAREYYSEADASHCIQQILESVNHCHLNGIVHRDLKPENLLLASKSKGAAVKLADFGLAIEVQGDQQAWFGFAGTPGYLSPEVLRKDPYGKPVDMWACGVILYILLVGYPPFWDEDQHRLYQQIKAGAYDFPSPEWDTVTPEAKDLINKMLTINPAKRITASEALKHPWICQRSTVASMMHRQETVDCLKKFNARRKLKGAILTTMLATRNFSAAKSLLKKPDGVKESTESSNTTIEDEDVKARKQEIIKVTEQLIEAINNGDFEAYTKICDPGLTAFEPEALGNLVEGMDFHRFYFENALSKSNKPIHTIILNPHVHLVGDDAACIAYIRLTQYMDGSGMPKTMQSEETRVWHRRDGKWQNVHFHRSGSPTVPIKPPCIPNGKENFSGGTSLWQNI

[5] = biological target: G protein-coupled receptor kinase 5 (Homo sapiens, UniProt P34947); assay: Selectivity interaction (Kinase panel (DSF assay)) EUB0001558a GRK5
Sequence of G protein-coupled receptor kinase 5 (P34947 whole entry, looked up, canonical isoform): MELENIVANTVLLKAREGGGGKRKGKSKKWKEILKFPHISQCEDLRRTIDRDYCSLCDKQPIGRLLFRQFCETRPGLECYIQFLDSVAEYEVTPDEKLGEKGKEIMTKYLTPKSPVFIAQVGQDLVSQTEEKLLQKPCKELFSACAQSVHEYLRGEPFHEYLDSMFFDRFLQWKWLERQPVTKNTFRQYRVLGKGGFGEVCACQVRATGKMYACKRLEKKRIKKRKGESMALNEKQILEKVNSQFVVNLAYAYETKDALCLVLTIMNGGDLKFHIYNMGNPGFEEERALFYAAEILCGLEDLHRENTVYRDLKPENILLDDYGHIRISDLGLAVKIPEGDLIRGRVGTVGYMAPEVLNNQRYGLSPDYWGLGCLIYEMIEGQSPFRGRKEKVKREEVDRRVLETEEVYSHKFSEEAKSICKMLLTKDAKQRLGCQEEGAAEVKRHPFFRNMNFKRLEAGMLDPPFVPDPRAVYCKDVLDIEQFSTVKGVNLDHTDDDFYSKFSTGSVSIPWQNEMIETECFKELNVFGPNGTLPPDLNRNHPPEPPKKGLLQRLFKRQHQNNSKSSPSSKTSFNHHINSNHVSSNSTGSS

[6] = biological target: Phosphatidylinositol 4,5-bisphosphate 3-kinase catalytic subunit beta isoform (Homo sapiens) (UniProt P42338); assay: Selectivity interaction (KinomeScan (DiscoverX)) EUB0000229b PIK3CB; conditions: at 10 µM
Sequence of Phosphatidylinositol 4,5-bisphosphate 3-kinase catalytic subunit beta isoform (Homo sapiens) (P42338 whole entry, looked up, canonical isoform): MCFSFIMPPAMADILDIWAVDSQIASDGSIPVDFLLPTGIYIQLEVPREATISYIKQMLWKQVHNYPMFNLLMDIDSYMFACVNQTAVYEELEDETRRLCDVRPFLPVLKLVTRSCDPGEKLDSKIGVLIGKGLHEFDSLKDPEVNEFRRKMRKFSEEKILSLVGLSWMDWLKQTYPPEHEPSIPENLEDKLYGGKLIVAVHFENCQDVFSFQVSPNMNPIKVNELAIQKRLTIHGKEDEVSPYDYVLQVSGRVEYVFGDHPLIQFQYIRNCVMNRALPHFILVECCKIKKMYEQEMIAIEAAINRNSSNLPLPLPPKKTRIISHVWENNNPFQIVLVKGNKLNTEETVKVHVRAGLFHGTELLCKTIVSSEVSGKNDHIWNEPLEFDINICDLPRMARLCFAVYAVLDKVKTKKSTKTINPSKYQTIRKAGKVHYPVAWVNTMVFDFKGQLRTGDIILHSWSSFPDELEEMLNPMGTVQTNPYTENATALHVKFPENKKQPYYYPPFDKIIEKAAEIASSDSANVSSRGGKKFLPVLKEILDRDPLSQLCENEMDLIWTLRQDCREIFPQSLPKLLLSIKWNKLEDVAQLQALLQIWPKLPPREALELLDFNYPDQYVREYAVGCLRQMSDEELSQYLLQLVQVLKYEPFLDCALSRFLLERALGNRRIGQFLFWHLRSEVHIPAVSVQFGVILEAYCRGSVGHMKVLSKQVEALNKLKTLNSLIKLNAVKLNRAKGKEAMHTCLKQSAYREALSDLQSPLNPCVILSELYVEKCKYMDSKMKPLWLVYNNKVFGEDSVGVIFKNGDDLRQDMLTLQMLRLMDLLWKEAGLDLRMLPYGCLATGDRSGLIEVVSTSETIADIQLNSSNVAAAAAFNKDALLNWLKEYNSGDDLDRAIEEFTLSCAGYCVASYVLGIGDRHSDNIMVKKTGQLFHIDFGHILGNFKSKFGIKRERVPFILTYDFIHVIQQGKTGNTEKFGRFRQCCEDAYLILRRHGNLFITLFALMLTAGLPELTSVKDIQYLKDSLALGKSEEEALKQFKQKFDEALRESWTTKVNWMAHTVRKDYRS

[7] = biological target: T3, Beta-adrenergic receptor kinase 1 (Homo sapiens) (UniProt P25098); assay: Selectivity interaction (KinomeScan (DiscoverX)) EUB0000229b ADRBK1; conditions: at 10 µM
T3 sequence (whole entry): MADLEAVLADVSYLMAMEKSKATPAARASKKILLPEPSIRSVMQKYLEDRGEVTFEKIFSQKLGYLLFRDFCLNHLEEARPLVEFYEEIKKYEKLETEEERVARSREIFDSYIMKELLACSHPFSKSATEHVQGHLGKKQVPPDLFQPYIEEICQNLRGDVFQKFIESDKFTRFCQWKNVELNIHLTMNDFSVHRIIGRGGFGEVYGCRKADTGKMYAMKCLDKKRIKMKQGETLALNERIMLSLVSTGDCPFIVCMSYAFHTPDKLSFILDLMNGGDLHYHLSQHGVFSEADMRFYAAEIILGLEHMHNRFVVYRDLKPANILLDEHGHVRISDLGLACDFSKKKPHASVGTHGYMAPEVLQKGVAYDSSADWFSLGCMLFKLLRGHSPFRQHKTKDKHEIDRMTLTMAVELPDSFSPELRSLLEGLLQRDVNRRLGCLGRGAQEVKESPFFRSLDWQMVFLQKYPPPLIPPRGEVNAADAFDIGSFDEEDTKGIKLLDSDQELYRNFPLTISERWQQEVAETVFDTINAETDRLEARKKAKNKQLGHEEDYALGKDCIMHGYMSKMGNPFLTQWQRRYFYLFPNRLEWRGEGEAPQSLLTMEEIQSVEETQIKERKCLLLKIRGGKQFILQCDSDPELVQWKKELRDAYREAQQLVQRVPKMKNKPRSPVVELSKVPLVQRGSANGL

O=C(NOC[C@H](O)CO)c1ccc(F)c(F)c1Nc1ccc(I)cc1F
% of control [1]: 100% | % of control [2]: 89% | % of control [3]: 66%

CN(C)C/C=C/C(=O)Nc1ccc(C(=O)N2CCCC(Nc3ncc(Cl)c(-c4c[nH]c5ccccc45)n3)C2)cc1 (configuration not stated)
% of control [4]: 88%

CC(C)(O)[C@H](F)CN1Cc2cc(NC(=O)c3cnn4cccnc34)c(N3CCOCC3)cc2C1=O
dTM [5]: 0.2 K

COc1cc(N(C)c2ccnc3ccc(C(F)(F)F)cc23)cc(OC)c1OC
% binding [6]: 63% | % binding [7]: 92%
